Earlier results as cited in patent US20260248891A1, “TIRZEPATIDE COMPOSITIONS AND USE” (Eli Lilly and Company, priority 2022, published 2026).

Test system: patients with obesity or overweight
Settings: Phase 3 study, currently approved doses

## tirzepatide
  weight loss: 15.7%
